Consider 20 molecules from patent publication US7605156B2, “Methods for the use of inhibitors of cytosolic phospholipase A2” (Wyeth, priority 2001, dated 2009).

For this assay, the target named is T1, cPLA2 (Homo sapiens, UniProt P47712).
T1 sequence (P47712 1-749): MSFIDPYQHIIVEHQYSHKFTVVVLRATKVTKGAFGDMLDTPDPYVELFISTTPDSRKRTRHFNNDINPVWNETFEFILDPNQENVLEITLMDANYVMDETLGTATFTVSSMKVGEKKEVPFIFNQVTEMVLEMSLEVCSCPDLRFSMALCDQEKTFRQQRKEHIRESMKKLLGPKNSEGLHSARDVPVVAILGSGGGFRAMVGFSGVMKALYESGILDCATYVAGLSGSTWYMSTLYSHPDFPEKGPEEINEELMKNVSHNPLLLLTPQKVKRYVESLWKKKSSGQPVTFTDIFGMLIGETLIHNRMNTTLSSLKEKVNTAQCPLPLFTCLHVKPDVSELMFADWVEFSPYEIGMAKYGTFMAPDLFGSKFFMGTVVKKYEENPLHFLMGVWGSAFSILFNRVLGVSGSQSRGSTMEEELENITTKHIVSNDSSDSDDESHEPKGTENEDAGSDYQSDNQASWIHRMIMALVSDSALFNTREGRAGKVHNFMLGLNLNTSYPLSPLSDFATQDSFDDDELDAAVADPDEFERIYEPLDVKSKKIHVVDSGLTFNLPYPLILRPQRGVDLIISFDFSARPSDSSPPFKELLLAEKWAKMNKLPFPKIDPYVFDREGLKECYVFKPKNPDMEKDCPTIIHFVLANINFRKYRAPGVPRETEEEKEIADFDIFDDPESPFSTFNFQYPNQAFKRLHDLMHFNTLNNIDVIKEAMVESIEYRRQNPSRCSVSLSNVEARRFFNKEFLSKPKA
The assay can be described thus: Coumarine assay (hydrolysis of 7-hydroxycoumarinyl 6-heptenoate). The format is biochemical. As to conditions: 60 μM 7-hydroxycoumarinyl 6-heptenoate, pH 7.5; read-out: Coumarin IC50.
Procedure: Inhibitors were mixed with 200 μL assay buffer (80 mM Heped, pH 7.5, 1 mM EDTA) containing 60 μM 7-hydroxycoumarinyl 6-heptenoate. The reaction was initiated by adding 4 μg cPLA2 in 50 μL assay buffer. Hydrolysis of the 7-hydroxycounarimyl 6-heptenoate ester was monitored in a fluorometer by exciting at 360 nm and monitoring emission at 460 nm. Enzyme activity is proportional to the increase in emission at 460 nm per minute. In the presence of a cPLA2 inhibitor, the rate of increase is less.
By IC50 is commonly meant the concentration at which inhibition is half-maximal. As to `Cc1nc(S(=O)(=O)NCCc2c(CCCc3ccc(C(=O)O)cc3)c3cc(Cl)ccc3n2C(c2ccccc2)c2ccccc2)cn1C` [Example 257, 4-{3-[1-benzhydryl-5-chloro-2-(2-{[(1,2-dimethyl-1H-imidazol-4-yl)sulfonyl]amino}ethyl)-1H-indol-3-yl]propyl}benzoic acid], the IC50 came to 500 nM.

In the case of `O=C(O)c1ccc(OCCc2c(CCNS(=O)(=O)c3c(F)cccc3F)n(C(c3ccccc3)c3ccccc3)c3ccc(Cl)cc23)cc1` [Example 225, 4-{2-[1-benzhydryl-5-chloro-2-(2-{[(2,6-difluorophenyl)sulfonyl]amino}ethyl)-1H-indol-3-yl]ethoxy}benzoic acid], the IC50 came to 400 nM.

Turning to `COc1ccc(S(=O)(=O)NCCc2c(CCCc3ccc(C(=O)O)cc3)c3cc(Cl)ccc3n2C(c2ccccc2)c2ccccc2)c2nonc12` [Example 173, 4-{3-[1-benzhydryl-5-chloro-2-(2-{[(7-methoxy-2,1,3-benzoxadiazol-4-yl)sulfonyl]amino}ethyl)-1H-indol-3-yl]propyl}benzoic acid], the IC50 came to 400 nM.

In the case of `COC[C@@H]1CCCN1CCS(=O)(=O)NCCc1c(CCOc2ccc(C(=O)O)cc2)c2cc(Cl)ccc2n1C(c1ccccc1)c1ccccc1` [Example 248, 4-[2-(1-benzhydryl-5-chloro-2-{2-[({2-[(2S)-2-(methoxymethyl)pyrrolidin-1-yl]ethyl}sulfonyl)amino]ethyl}-1H-indol-3-yl)ethoxy]benzoic acid], the IC50 came to 1200 nM.

On to `O=C(O)c1ccc(OCCc2c(CCNS(=O)(=O)CSc3ccc(Cl)cc3Cl)n(C(c3ccccc3)c3ccccc3)c3ccc(Cl)cc23)cc1` [Example 287, 4-[2-(1-benzhydryl-5-chloro-2-{2-[([[(2,4-dichlorophenyl)sulfanyl]methyl}sulfonyl)amino]ethyl}-1H-indol-3-yl)ethoxy]benzoic acid], for which the IC50 came to 420 nM.

As to `O=C(O)c1ccc(CCCc2c(CCNS(=O)(=O)c3c(Cl)cccc3Cl)n(C(c3ccccc3)c3ccccc3)c3ccc(Cl)cc23)cc1` [Example 153, 4-{3-[1-benzhydryl-5-chloro-2-(2-{[(2,6-dichlorophenyl)sulfonyl]amino}ethyl)-1H-indol-3-yl]propyl}benzoic acid], the IC50 amounted to 160 nM.

As for `O=C(O)c1ccc(OCCc2c(CCNS(=O)(=O)c3ccc(-c4ccc(F)cc4)cc3)n(C(c3ccccc3)c3ccccc3)c3ccc(Cl)cc23)cc1` [Example 217, 4-{2-[1-benzhydryl-5-chloro-2-(2-{[(4′-fluoro-1,1′-biphenyl-4-yl)sulfonyl]amino}ethyl)-1H-indol-3-yl]ethoxy}benzoic acid], the IC50 came out at 2600 nM.

For `CC1CCCN(CCS(=O)(=O)NCCc2c(CCOc3ccc(C(=O)O)cc3)c3cc(Cl)ccc3n2C(c2ccccc2)c2ccccc2)C1` (centres unmarked) [Example 246, 4-(2-{I-benzhydryl-5-chloro-2-[2-({[2-(3-methylpiperidin-1-yl)ethyl]sulfonyl}amino)ethyl]-1H-indol-3-yl}ethoxy)benzoic acid], the concentration for half-maximal inhibition (IC50) was determined as 1200 nM.

As for `O=C(O)CCc1ccc(S(=O)(=O)CCc2c(CCNS(=O)(=O)c3ccccc3Cl)n(C(c3ccccc3)c3ccccc3)c3ccc(Cl)cc23)cc1` [Example 259, 3-[4-({2-[1-benzhydryl-5-chloro-2-(2-{[(2-chlorophenyl)sulfonyl]amino}ethyl)-1H-indol-3-yl]ethyl}sulfonyl)phenyl]propanoic acid], the IC50 amounted to 200 nM.

`O=S(=O)(Cc1ccc(Cl)c(Cl)c1)NCCc1c(CCOc2ccc(-c3nn[nH]n3)cc2)c2cc(Cl)ccc2n1C(c1ccccc1)c1ccccc1` [Example 192, N-[2-(1-benzhydryl-5-chloro-3-{2-[4-(2H-tetraazol-5-yl)phenoxy]ethyl}-1H-indol-2-yl)ethyl]-1-(3,4-dichlorophenyl)methanesulfonamide]: the IC50 was less than 3700 nM.

Turning to `NC(=O)C1CCCN1CCS(=O)(=O)NCCc1c(CCOc2ccc(C(=O)O)cc2)c2cc(Cl)ccc2n1C(c1ccccc1)c1ccccc1` (centres unmarked) [Example 247, 4-[2-(1-Benzhydryl-2-{2-[2-(2-carbamoyl-pyrrolidin-1-yl)-ethanesulfonylamino]-ethyl}-5-chloro-1H-indol-3-yl)-ethoxy]-benzoic acid], the IC50 came out at 1200 nM.

Take `Cc1nc(-c2ccc(S(=O)(=O)NCCc3c(CCCc4ccc(C(=O)O)cc4)c4cc(Cl)ccc4n3C(c3ccccc3)c3ccccc3)s2)cs1` [Example 176, 4-(3-{1-benzhydryl-5-chloro-2-[2-({[5-(2-methyl-1,3-thiazol-4-yl)thien-2-yl]sulfonyl}amino)ethyl]-1H-indol-3-yl}propyl)benzoic acid]: the 50% inhibitory concentration (IC50) was determined as 400 nM.

As for `Cc1cccc(C)c1S(=O)(=O)NCCc1c(CCOc2ccc(C(=O)O)cc2)c2cc(Cl)ccc2n1C(c1ccccc1)c1ccccc1` [Example 271, 4-{2-[1-benzhydryl-5-chloro-2-(2-{[(2,6-dimethylphenyl)sulfonyl]amino}ethyl)-1H-indol-3-yl]ethoxy}benzoic acid], the half-inhibitory concentration (IC50) stood at 150 nM.

Consider `O=C(O)c1ccc(CCCc2c(CCNS(=O)(=O)c3ccccc3Cl)n(C(c3ccccc3)c3ccccc3)c3ccccc23)cc1` [Example 295, 4-{3-[1-benzhydryl-2-(2-{[(2-chlorophenyl)sulfonyl]amino}ethyl)-1H-indol-3-yl]propyl}benzoic acid], for which the concentration for half-maximal inhibition (IC50) was 550 nM.

Consider `O=C(O)c1ccc(CCCc2c(CCNS(=O)(=O)Cc3ccccc3[N+](=O)[O-])n(C(c3ccccc3)c3ccccc3)c3ccc(Cl)cc23)cc1` [Example 56, 4-{3-[5-Chloro-1-(diphenylmethyl)-2-(2-{[(2-nitrobenzyl)sulfonyl]amino}ethyl)-1H-indol-3-yl]propyl}benzoic acid], for which the IC50 came out at 130 nM.

For the molecule `O=C(O)c1ccc(CCCc2c(CCNS(=O)(=O)c3ccccc3Cl)n(C(c3ccccc3)c3ccccc3)c3ccc(Cl)cc23)cc1` [Example 254, 4-{3-[1-benzhydryl-5-chloro-2-(2-{[(2-chlorophenyl)sulfonyl]amino}ethyl)-1H-indol-3-yl]propyl}benzoic acid], the IC50 was determined as 260 nM.

Consider `O=C(O)c1ccc(OCCc2c(CCNS(=O)(=O)c3c(Cl)cccc3Cl)n(C(c3ccccc3)c3ccccc3)c3ccc(Cl)cc23)cc1` [Example 160, 4-{2-[1-benzhydryl-5-chloro-2-(2-{[(2,6-dichlorophenyl)sulfonyl]amino}ethyl)-1H-indol-3-yl]ethoxy}benzoic acid], for which the concentration for half-maximal inhibition (IC50) is 190 nM.

Consider `O=C(O)c1ccc(OCCc2c(CCNS(=O)(=O)c3cc(Cl)c(F)cc3F)n(C(c3ccccc3)c3ccccc3)c3ccc(Cl)cc23)cc1` [Example 169, 4-{2-[1-Benzhydryl-5-chloro-2-(2-{[(5-chloro-2,4-difluorophenyl)sulfonyl]amino}ethyl)-1H-indol-3-yl]ethoxy}benzoic acid], for which the half-inhibitory concentration (IC50) stood at 460 nM.

Regarding `O=C(O)c1ccc(OCCc2c(CCNS(=O)(=O)c3ccccc3Br)n(C(c3ccccc3)c3ccccc3)c3ccc(Cl)cc23)cc1` [Example 165, 4-{2-[1-benzhydryl-2-(2-{[(2-bromophenyl)sulfonyl]amino}ethyl)-5-chloro-1H-indol-3-yl]ethoxy}benzoic acid], the half-maximal inhibitory concentration (IC50) is 530 nM.

On to `CS(=O)(=O)c1ccc(S(=O)(=O)NCCc2c(CCCc3ccc(C(=O)O)cc3)c3cc(Cl)ccc3n2C(c2ccccc2)c2ccccc2)cc1` [Example 202, 4-(3-{1-Benzhydryl-5-chloro-2-{2-({[4-(methysulfonyl)phenyl]sulfonyl}amino)ethyl]-1H-indol-3-yl}propyl)benzoic acid], for which the concentration for half-maximal inhibition (IC50) worked out at 300 nM.
